Reference: patent publication US11660290B2, “Affinity based drug release formulations” (McMaster University, priority 2016, dated 2023)

Legend:
[1] = target: Alexa-Fluor 488 streptavidin (Streptomyces avidinii, UniProt P22629); test: Release study of fluorescent streptavidin from agarose-desthiobiotin hydrogels; conditions: for release of fluorescent streptavidin from the hydrogel (rate, in words): 1 wt % Ag-D gel, insoluble biotin derivative, PBS
Description: Ag-D was dissolved in 0.1M PBS at 2 wt %, Alexa-Fluor 488 streptavidin was subsequently added and the mixture was incubated at 37° C. for 2 h. […] Gels were cured at 4 C for 20 min to 1 hr and initial fluorescent readings of the gel were taken. 200 uL of PBS was subsequently dispensed overtop of the gels and collected and replenished at specific time intervals. The loss of fluorescence as well as the released fluorescent streptavidin was measured at specific time points (FIGS. 5B and 6).

HUVEC = tested on: HUVEC
Description: Additionally, toxicity studies were performed using the MTS assay using HUVEC, assessing the toxicity of the components of the drug delivery system as well as the complete drug delivery system (FIGS. 11 A and B).

[2] = Transparency of agarose hydrogels with solid suspension of oleylbiotin; format: physicochemical; conditions: solid suspension in agarose hydrogel

Alexa-Fluor 488 streptavidin, sequence (P22629 25-183): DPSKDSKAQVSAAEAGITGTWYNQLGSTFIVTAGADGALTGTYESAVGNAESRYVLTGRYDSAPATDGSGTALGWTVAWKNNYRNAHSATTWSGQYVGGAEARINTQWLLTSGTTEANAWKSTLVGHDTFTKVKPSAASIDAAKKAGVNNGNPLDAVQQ

Molecule	release of fluorescent streptavidin from the hydrogel (rate, in words) [1]	toxicity of single components of the drug delivery system (HUVEC)	concentration that did not decrease the transparency of agarose gels [2] [µM]	time over which oleylbiotin concentration modulates the release of streptavidin ([1]; various oleylbiotin concentrations, system of Example 1)	duration of streptavidin release (extrapolation of preliminary experiments) ([1]; wild-type streptavidin) [days]
O=C(O)CCCC[C@@H]1SC[C@@H]2NC(=O)N[C@@H]21 [biotin, reference compound]	most rapid release	–	–	–	–
Tert-butyl biotin	slower release	–	–	–	–
oleyl-biotin	slowest and longest release	None of the components display any inherent toxicity except for the solid suspension of oleylbiotin	≤ 80	at least 150 days	> 100
